Values after ≈ are worked out from the molar mass of the structure shown. Where a name gives a salt, the structure may show the parent alone.
How the values were obtained:
[1] = both forms of Compound 1 (S)-malate; comparison value, source not stated; cited from earlier work
[2] = aqueous equilibrium solubility by HPLC; format: physicochemical; settings: for pH of the solubility solution: checked with pH paper; for aqueous solubility: distilled water, ambient temperature (about 25° C.), 24 hours, HPLC; for solubility compared to malate salt of Compound 1: comparison in words
Procedure: The HPLC method used to determine aqueous equilibrium solubility is outlined in Table 32.
HPLC solubility determination about 5 mg of each salt was added to a vial with distilled water (1 mL). These were stirred at ambient temperature (about 25° C.) for 24 hours. The solution was isolated by filtration through a 0.2 μm PTFE filter and was analyzed by HPLC for concentration. The pH of the solutions was checked with pH paper.

[3] = Dynamic Vapor Sorption (DVS) hygroscopicity; format: physicochemical; settings: for hygroscopicity, European Pharmacopoeia classification: weight increase at 80% RH (25° C.); for XRPD analysis of the post DVS sample: physical form after DVS cycle
Procedure: As used herein “the European Pharmacopoeia classification” is a system whereby a chemical Compound 1s classified based on hygroscopicity. The classification is determined according to Table 2: [table] Dynamic Vapor Sorption (DVS) was performed using a Hiden Analytical Instruments IGAsorp Vapor Sorption Balance. Approximately 30 mg of sample was placed into a wire mesh vapor sorption balance pan, loaded into the IGAsorp vapor sorption balance, and held at 25° C.±0.1° C. The sample was subjected to a step profile from 0 to 90% RH at 10% increments, followed by desorption from […] to 0% RH at 10% increments. The equilibrium criterion was set to 99.0% step completion within a minimum of 60 minutes and a maximum of 5 hours for each increment. The weight change during the sorption cycle was monitored, allowing for the hygroscopic nature of the sample to be determined. The data collection interval was in seconds.

[4] = initial development experiments (BCS classification, solubility, permeability); format: physicochemical; settings: free base
[5] = humidity stress at 40° C./75% relative humidity; format: physicochemical; settings: about 7 days
[6] = listed as Compound 1 isethionate monohydrate

In the case of `COc1cc2nccc(Oc3ccc(NC(=O)C4(C(=O)Nc5ccc(F)cc5)CC4)cc3)c2cc1OC` [Compound 1 (S)-malate, S-malate salt of N-{4-[(6,7-dimethoxyquinolin-4-yl)oxy]phenyl}-N′-(4-fluorophenyl) cyclopropane-1,1-dicarboxamide], the “hygroscopicity weight gain of comparator” value [1] is given as “about 0.4 % w/w”.

With `COc1cc2nccc(Oc3ccc(NC(=O)C4(C(=O)Nc5ccc(F)cc5)CC4)cc3)c2cc1OC` [Form 20, N-{4-[(6,7-dimethoxyquinolin-4-yl)oxy]phenyl}-N′-(4-fluorophenyl) cyclopropane-1,1-dicarboxamide] the “pH of the solubility solution” value ([2]; listed as Compound 1 glutarate) was “about 3”, the aqueous solubility ([2]; listed as Compound 1 glutarate) was 16 µg/mL (≈ 31.9 µM) and the “total weight gain between 0% RH and 80% RH” value ([3]; DVS, 25° C., listed as Compound 1 glutarate) was 0.08 % w/w. For the same compound, the “hygroscopicity, European Pharmacopoeia classification” value ([3]; listed as Compound 1 glutarate) was “non-hygroscopic”.

For `COc1cc2nccc(Oc3ccc(NC(=O)C4(C(=O)Nc5ccc(F)cc5)CC4)cc3)c2cc1OC` [Form 14, N-{4-[(6,7-dimethoxyquinolin-4-yl)oxy]phenyl}-N′-(4-fluorophenyl) cyclopropane-1,1-dicarboxamide], the “pH of the solubility solution” value ([2]; listed as Compound 1 pyruvate) was “about 3”, the “solubility compared to malate salt of Compound 1” value ([2]; listed as Compound 1 pyruvate) was “higher solubility” and the aqueous solubility ([2]; listed as Compound 1 pyruvate) was “about 0.133 mg/mL”. The “total weight gain between 0% RH and 80% RH” value ([3]; DVS, 25° C., listed as Compound 1 pyruvate) was 0.10 % w/w, the “XRPD analysis of the post DVS sample” value [3] was “remained unchanged” and the “hygroscopicity, European Pharmacopoeia classification” value ([3]; listed as Compound 1 pyruvate) was “non-hygroscopic”.

With `COc1cc2nccc(Oc3ccc(NC(=O)C4(C(=O)Nc5ccc(F)cc5)CC4)cc3)c2cc1OC` [Compound 1, N-{4-[(6,7-dimethoxyquinolin-4-yl)oxy]phenyl}-N′-(4-fluorophenyl) cyclopropane-1,1-dicarboxamide] the BCS class [4] was “BCS class II”, the “solubility” value ([4]; in water) was “low solubility” and the “% Weight Change” value [5] was −0.94%. For the same compound, the “XRPD after humidity stressing” value [5] was “Form 1”.

With `COc1cc2nccc(Oc3ccc(NC(=O)C4(C(=O)Nc5ccc(F)cc5)CC4)cc3)c2cc1OC` [Form 3, N-{4-[(6,7-dimethoxyquinolin-4-yl)oxy]phenyl}-N′-(4-fluorophenyl) cyclopropane-1,1-dicarboxamide] the “XRPD after humidity stressing” value [5] was “no form change” and the “weight loss after humidity stressing” value [5] was 43.17%.

For `COc1cc2nccc(Oc3ccc(NC(=O)C4(C(=O)Nc5ccc(F)cc5)CC4)cc3)c2cc1OC` [Form 27, N-{4-[(6,7-dimethoxyquinolin-4-yl)oxy]phenyl}-N′-(4-fluorophenyl) cyclopropane-1,1-dicarboxamide], the “pH of the solubility solution” value [2, 6] was “about 2”, the “solubility compared to malate salt of Compound 1” value [2, 6] was “much higher solubility” and the aqueous solubility [2, 6] was 195 µg/mL (≈ 389 µM). For the same compound, the “plateau of water content between 10-50% RH” value ([3]; DVS isotherm, 1 mol. eq.) was “about 3.0±0.1 % w/w”, the “total weight gain between 20% RH and 80% RH” value ([3]; DVS, 25° C.) was “about 2.4 % w/w” and the “XRPD analysis of the post DVS sample” value [3] was “remained unchanged”. The “hygroscopicity, European Pharmacopoeia classification” value [3, 6] was “hygroscopic”.
